The text below walks through data of patent publication US20080132536A1, “PYRAZOLO [3,4-B] PYRIDINE COMPOUNDS, AND THEIR USE AS PDE4 INHIBITORS” (Glaxo Group Limited, priority 2003, published 2008).

Structures are written as SMILES.

In the first experiment the target is T1, PDE4B (human recombinant) (Homo sapiens, UniProt Q07343).
T1 construct: made in house
T1 sequence (Q07343 1-564 isoform Q07343-2): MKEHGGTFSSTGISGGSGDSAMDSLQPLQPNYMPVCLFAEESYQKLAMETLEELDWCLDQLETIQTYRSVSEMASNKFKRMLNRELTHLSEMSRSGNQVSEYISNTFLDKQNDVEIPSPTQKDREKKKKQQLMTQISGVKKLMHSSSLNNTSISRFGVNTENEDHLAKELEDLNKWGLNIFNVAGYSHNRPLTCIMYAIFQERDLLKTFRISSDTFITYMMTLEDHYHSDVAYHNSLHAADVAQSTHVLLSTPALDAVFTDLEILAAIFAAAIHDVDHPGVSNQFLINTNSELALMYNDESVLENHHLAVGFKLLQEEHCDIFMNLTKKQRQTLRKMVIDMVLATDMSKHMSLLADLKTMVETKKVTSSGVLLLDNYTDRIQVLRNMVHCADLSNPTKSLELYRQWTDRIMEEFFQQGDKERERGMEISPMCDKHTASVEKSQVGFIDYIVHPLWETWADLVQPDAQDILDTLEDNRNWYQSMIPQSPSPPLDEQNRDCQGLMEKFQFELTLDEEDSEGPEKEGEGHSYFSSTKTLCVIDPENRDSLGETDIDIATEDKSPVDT
Briefly: PDE4B inhibition, radioactive SPA and/or IMAP fluorescence polarisation (FP) assay. Type of experiment: biochemical. The following applies: comparators: Examples 6, 7, 29, 26, 64, 126, 124, 170, 177. The source says:
Human recombinant PDE4B, in particular the 2B splice variant thereof (HSPDE4B2B), is disclosed in WO 94/20079 and also M. M. McLaughlin et al., “A low Km, rolipram-sensitive, cAMP-specific phosphodiesterase from human brain: cloning and expression of cDNA, biochemical characterisation of recombinant protein, and tissue distribution of mRNA”, J. Biol. Chem., 1993, 268, 6470-6476. For example, in Example 1 of WO 94/20079, human recombinant PDE4B is described as being expressed in the PDE-deficient yeast Saccharomyces cerevisiae strain GL62, e.g. after induction by addition of 150 uM CuSO4, and 100,000×g supernatant fractions of yeast cell lysates are described for use in the harvesting of PDE4B enzyme.
The ability of compounds to inhibit catalytic activity at PDE4B or 4D (human recombinant), PDE3 (from bovine aorta), PDE5 (human recombinant) or PDE6 (from bovine retina) can optionally be determined by Scintillation Proximity Assay (SPA) in 96-well format.
Test compounds (as a solution in DMSO, preferably about 2 microlitre (ul) volume of DMSO solution) are preincubated at ambient temperature (room temperature, e.g. 19-23° C.) in Wallac Isoplates (code 1450-514) with PDE enzyme in 50 mM Tris-HCl buffer pH 7.5, 8.3 mM MgCl2, 1.7 mM EGTA, 0.05% (w/v) bovine serum albumin for 10-30 minutes (usually 30 minutes). The enzyme concentration is adjusted so that no more than 20% hydrolysis of the substrate defined below occurs in control wells without compound, during the incubation. For the PDE3, PDE4B and PDE4D assays, [5′,8-3H]Adenosine 3′,5′-cyclic phosphate (Amersham Pharmacia Biotech, code TRK.559; or Amersham Biosciences UK Ltd, Pollards Wood, Chalfont St Giles, Buckinghamshire HP8 4SP, UK) is added to give 0.05 uCi per well and about 10 nM final concentration. For the PDE5 and PDE6 assays, [8-^3H]Guanosine 3′,5′-cyclic phosphate (Amersham Pharmacia Biotech, code TRK.392) is added to give 0.05 uCi per well and about 36 nM final concentration. Plates containing assay mixture, preferably approx. 100 ul volume of assay mixture, are mixed on an orbital shaker for 5 minutes and incubated at ambient temperature for 1 hour. Phosphodiesterase SPA beads (Amersham Pharmacia Biotech, code RPNQ 0150) are added (about 1 mg per well) to terminate the assay. Plates are sealed and shaken and allowed to stand at ambient temperature for 35 minutes to 1 hour (preferably 35 minutes) to allow the beads to settle. Bound radioactive product is measured using a WALLAC TRILUX 1450 Microbeta scintillation counter. For inhibition curves, 10 concentrations (1.5 nM-30 uM) of each compound are assayed. Curves are analysed using ActivityBase and XLfit (ID Business Solutions Limited, 2 Ocean Court, Surrey Research Park, Guildford, Surrey GU2 7QB, United Kingdom) Results are expressed as pIC50 values.
The ability of compounds to inhibit catalytic activity at PDE4B (human recombinant) or PDE4D (human recombinant) can optionally be determined by IMAP Fluorescence Polarisation (FP) assay (IMAP Explorer kit, available from Molecular Devices Corporation, Sunnydale, Calif., USA; Molecular Devices code: R8062) in 384-well format.
The IMAP FP assay is able to measure PDE activity in an homogenous, non-radioactive assay format. The FP assay uses the ability of immobilised trivalent metal cations, coated onto nanoparticles (tiny beads), to bind the phosphate group of Fl-AMP that is produced on the hydrolysis of fluorescein-labelled (Fl) cyclic adenosine mono-phosphate (Fl-cAMP) to the non-cyclic Fl-AMP form. […] Binding of Fl-AMP product to the beads (coated with the immobilised trivalent cations) slows the rotation of the bound Fl-AMP and leads to an increase in the fluorescence polarisation ratio of parallel to perpendicular light. Inhibition of the PDE reduces/inhibits this signal increase. […]
As to `CCn1ncc2c(NC3CCOCC3)c(C(=O)N[C@H](C)c3ccc(OC)cc3)cnc21` [Example 63, 1-ethyl-N-{(1R)-1-[4-(methyloxy)phenyl]ethyl}-4-(tetrahydro-2H-pyran-4-ylamino)-1H-pyrazolo[3,4-b]pyridine-5-carboxamide], the “PDE4B inhibitory activity compared with the comparable Example of opposite stereochemistry at the CR4R5 (benzylic) carbon atom” value is “greater PDE4B inhibitory activity”. Same read-out and setting: next, `CCn1ncc2c(NC3CCCCC3)c(C(=O)N[C@H](CO)c3ccccc3)cnc21` [Example 127, 4-(cyclohexylamino)-1-ethyl-N-[(1S)-2-hydroxy-1-phenylethyl]-1H-pyrazolo[3,4-b]pyridine-5-carboxamide]: “greater PDE4B inhibitory activity”; `CCn1ncc2c(NC3CCCCC3)c(C(=O)N[C@H](COC)c3ccccc3)cnc21` [Example 129, 4-(cyclohexylamino)-1-ethyl-N-[(1S)-2-(methyloxy)-1-phenylethyl]-1H-pyrazolo[3,4-b]pyridine-5-carboxamide]: “greater PDE4B inhibitory activity”. On the same count and under the same terms, for `CC[C@@H](NC(=O)c1cnc2c(cnn2CC)c1NC1CCN(C(C)=O)CC1)c1ccccc1` [Example 174, 4-[(1-acetyl-4-piperidinyl)amino]-1-ethyl-N-[(1R)-1-phenylpropyl]-1H-pyrazolo[3,4-b]pyridine-5-carboxamide] the value was “greater PDE4B inhibitory activity”; for `CCn1ncc2c(NC3CCC(=O)CC3)c(C(=O)N[C@H](C)c3ccc([N+](=O)[O-])cc3)cnc21` [Example 178, 1-ethyl-N-[(1R)-1-(4-nitrophenyl)ethyl]-4-[(4-oxocyclohexyl)amino]-1H-pyrazolo[3,4-b]pyridine-5-carboxamide], “greater PDE4B inhibitory activity”.

Staying with this experiment, now noted: one reading or average of several (ca. 2-6) readings; SPA and/or FP assay; range given for a group of Examples; read-out: PDE4B pIC50 (±about 0.5) (converted).
In the case of `CCn1ncc2c(NC3CCOCC3)c(C(=O)N[C@@H](C)c3cccc4ccccc34)cnc21` [Example 38, 1-ethyl-N-[(1S)-1-(1-naphthalenyl)ethyl]-4-(tetrahydro-2H-pyran-4-ylamino)-1H-pyrazolo[3,4-b]pyridine-5-carboxamide], the IC50 was 12.6 to 25.1 nM. On the same count and under the same terms, for `CCn1ncc2c(NC3CCOCC3)c(C(=O)NC(C)c3ccc(C)cc3)cnc21` (centres unmarked) [Example 48, 1-ethyl-N-[1-(4-methylphenyl)ethyl]-4-(tetrahydro-2H-pyran-4-ylamino)-1H-pyrazolo[3,4-b]pyridine-5-carboxamide] the value was 0.1 to 2 nM. Consider `CCn1ncc2c(NC3CCOCC3)c(C(=O)NC(C)c3ccc(Br)cc3)cnc21` (centres unmarked) [Example 50, N-[1-(4-bromophenyl)ethyl]-1-ethyl-4-(tetrahydro-2H-pyran-4-ylamino)-1H-pyrazolo[3,4-b]pyridine-5-carboxamide], for which the IC50 was 0.794 to 5.01 nM.

Turning to `CCn1ncc2c(NC3CCOCC3)c(C(=O)N[C@H](C)c3ccc(OC)cc3)cnc21` [Example 63, 1-ethyl-N-{(1R)-1-[4-(methyloxy)phenyl]ethyl}-4-(tetrahydro-2H-pyran-4-ylamino)-1H-pyrazolo[3,4-b]pyridine-5-carboxamide], the IC50 is 0.794 to 5.01 nM. Still for that read-out and setting: next, `CCn1ncc2c(NC3CCOCC3)c(C(=O)N[C@@H](C)c3ccc(OC)cc3)cnc21` [Example 64, 1-ethyl-N-{(1S)-1-[4-(methyloxy)phenyl]ethyl}-4-(tetrahydro-2H-pyran-4-ylamino)-1H-pyrazolo[3,4-b]pyridine-5-carboxamide]: 31.6 to 70.8 nM; `CCn1ncc2c(NC3CCOCC3)c(C(=O)N[C@H](C)c3ccc(C)cc3)cnc21` [Example 73, 1-ethyl-N-[(1R)-1-(4-methylphenyl)ethyl]-4-(tetrahydro-2H-pyran-4-ylamino)-1H-pyrazolo[3,4-b]pyridine-5-carboxamide]: 0.1 to 2 nM.

As to `CCn1ncc2c(NC3CCOCC3)c(C(=O)N[C@H](C)c3ccc(Br)cc3)cnc21` [Example 75, N-[(1R)-1-(4-bromophenyl)ethyl]-1-ethyl-4-(tetrahydro-2H-pyran-4-ylamino)-1H-pyrazolo[3,4-b]pyridine-5-carboxamide], the IC50 is 0.794 to 5.01 nM. Same read-out and setting: next, `CCC(NC(=O)c1cnc2c(cnn2CC)c1NC1CCOCC1)c1ccc(C)cc1C` (centres unmarked) [Example 98, N-[1-(2,4-dimethylphenyl)propyl]-1-ethyl-4-(tetrahydro-2H-pyran-4-ylamino)-1H-pyrazolo[3,4-b]pyridine-5-carboxamide]: 0.1 to 2 nM; `CCn1ncc2c(NC3CCCCC3)c(C(=O)N[C@H](C)c3ccc(C)cc3)cnc21` [Example 139, 4-(cyclohexylamino)-1-ethyl-N-[(1R)-1-(4-methylphenyl)ethyl]-1H-pyrazolo[3,4-b]pyridine-5-carboxamide]: 0.1 to 2 nM. On to `CCn1ncc2c(NC3CCC(=O)CC3)c(C(=O)N[C@H](C)c3ccc(C)cc3)cnc21` [Example 191, 1-ethyl-N-[(1R)-1-(4-methylphenyl)ethyl]-4-[(4-oxocyclohexyl)amino]-1H-pyrazolo[3,4-b]pyridine-5-carboxamide], for which the IC50 was 0.1 to 2 nM. The same measure, in the same setting: for `CCC(NC(=O)c1cnc2c(cnn2CC)c1NC1CCC(=O)CC1)c1ccc(C)cc1C` (centres unmarked) [Example 210, N-[1-(2,4-dimethylphenyl)propyl]-1-ethyl-4-[(4-oxocyclohexyl)amino]-1H-pyrazolo[3,4-b]pyridine-5-carboxamide] the value was 0.1 to 2 nM; for `CCC(NC(=O)c1cnc2c(cnn2CC)c1NC1CCC(=O)CC1)c1ccc(Br)cc1` (centres unmarked) [Example 218, N-[1-(4-bromophenyl)propyl]-1-ethyl-4-[(4-oxocyclohexyl)amino]-1H-pyrazolo[3,4-b]pyridine-5-carboxamide], 0.1 to 2 nM; for `CCC(NC(=O)c1cnc2c(cnn2CC)c1NC1CCC(=O)CC1)c1ccc(C)cc1` (centres unmarked) [Example 221, 1-ethyl-N-[1-(4-methylphenyl)propyl]-4-[(4-oxocyclohexyl)amino]-1H-pyrazolo[3,4-b]pyridine-5-carboxamide], 0.1 to 2 nM.

Consider `CCC(NC(=O)c1cnc2c(cnn2CC)c1NC1CCC(=NO)CC1)c1ccc(C)cc1` (centres unmarked) [Example 252, 1-ethyl-4-{[4-(hydroxyimino)cyclohexyl]amino}-N-[1-(4-methylphenyl)propyl]-1H-pyrazolo[3,4-b]pyridine-5-carboxamide], for which the IC50 was 0.1 to 2 nM. On the same count and under the same terms, for `CCC(NC(=O)c1cnc2c(cnn2CC)c1NC1CCC(=NO)CC1)c1ccc(C)c(C)c1` (centres unmarked) [Example 261, N-[1-(3,4-dimethylphenyl)propyl]-1-ethyl-4-{[4-(hydroxyimino)cyclohexyl]amino}-1H-pyrazolo[3,4-b]pyridine-5-carboxamide] the value was 0.1 to 2 nM; for `CCC(NC(=O)c1cnc2c(cnn2CC)c1NC1CCCC(O)C1)c1ccc(Cl)cc1` [Example 282, N-[1-(4-chlorophenyl)propyl]-1-ethyl-4-{[(1S,3R)-and/or (1R,3S)-3-hydroxycyclohexyl]amino}-1H-pyrazolo[3,4-b]pyridine-5-carboxamide], 0.1 to 2 nM; for `CC[C@@H](NC(=O)c1cnc2c(cnn2CC)c1N[C@H]1CC[C@@H](C(N)=O)CC1)c1ccc(C)cc1C` [Example 352, 4-{[cis-4-(aminocarbonyl)cyclohexyl]amino}-N-[(1R)-1-(2,4-dimethylphenyl)propyl]-1-ethyl-1H-pyrazolo[3,4-b]pyridine-5-carboxamide], 0.501 to 3.16 nM. Turning to `CCn1ncc2c(N[C@H]3CC[C@@H](C(N)=O)CC3)c(C(=O)N[C@H](C)c3ccc(C)cc3)cnc21` [Example 353, 4-{[cis-4-(aminocarbonyl)cyclohexyl]amino}-1-ethyl-N-[(1R)-1-(4-methylphenyl)ethyl]-1H-pyrazolo[3,4-b]pyridine-5-carboxamide], the IC50 was 0.501 to 3.16 nM.
